The numbers were not newly measured in US5837715A, “3-fluoro-4-aminopiperidine derivatives as 5-HT receptor agonists” (Merck Sharp & Dohme Ltd., priority 1997, dated 1998), which cites them from elsewhere.

Structures are written as SMILES.

For series [1] the following is noted: humans, therapeutic doses.
The subject of series [2] is human 5-HT1D.sbsb.α and 5-HT1D.sbsb.β receptor subtypes. As to conditions: cf. WO-A-91/17174, Table 1.

For `CNS(=O)(=O)Cc1ccc2[nH]cc(CCN(C)C)c2c1` [sumatriptan], in series [1], the adverse cardiovascular events entry is listed as “certain adverse cardiovascular events”. Further, in series [2], the “discrimination between the human 5-HT1D.sbsb.α and 5-HT1D.sbsb.β receptor subtypes” value was “barely discriminates”.
